Measured values from patent US20200405727A1, “NEW ALK INHIBITOR SENOLYTIC DRUGS” (FONDAZIONE PER L'ISTITUTO ONCOLOGICO DI RICERCA (IOR), priority 2018, published 2020).
“Also recorded” adds a separate entry of the source.

How the values were obtained:
[1] = system: IMR90 in replicative senescence (RS); experiment: Replicative senescence assay in human fibroblasts IMR90, Crystal Violet and SA-β-Gal; assay type: cell-based; conditions: 2.5 μM, passage 33, Crystal Violet and SA-β-Gal
Protocol: (§1) This assay was validated even with human fibroblasts, IMR90. Analogously to the protocol used for the MEFs, the IMR90 were seeded in 10 cm2-wide plates (3×10^5 cells/plate). Every 3 days these cells were detached by means of trypsin, counted with Trypan Blu and plated in the same number. This process was performed for 33 passages before starting the senolytic treatment. At passages 33 and 34 the senescence of these cells was tested by means of the assay of SA-β-Gal (about 78% of senescent cells).
(§2) At passage 33 non-senescent (NS) cells and cells in replicative senescence (RS) were seeded in a 96-well plate (5000 cells/well) and treated with different concentrations of Alectinib.

MEF Pten−/− (PICS) = experiment: Senolytic screening in PICS (Docetaxel-induced senescent MEF Pten−/−), cell viability and SA-β-Gal; assay type: cell-based, murine; conditions: 10 μM, 48 hours, MEF Pten−/− pre-treated with Docetaxel 750 nM; versus ABT-263 positive control
Protocol: (§3) The platform which was devised in our laboratory is capable of identifying the senolytic compounds based upon two parameters: (1) the inhibition of the cell viability and (2) the removal of the positive cells to the assay of β-Galactosidase (SA-β-Gal, senescence marker). As positive control of the compounds at the test stage, we included ABT-263, previously identified as senolytic compound 2. At last, the senolytic potentiality of these compounds is tested on murine embryonic fibroblasts (MEF) Pten−/− and WT.
(§4) Technically the screening was performed in three passages; • Before treatment, to the culture medium of MEF (DMEM, 10%FBS, 5% P/S) Docetaxel is added, at the concentration of 750 nM for 48 hours. […] The cells were seeded in a 96-well plate at a density of 5000 cells per well. In the more external wells PBS was added, so as to be able to maintain the correct humidity inside the plate. • At last, 24 hours after the seeding of cells, the compounds of our study were added to the cells for 48 hours at the concentration of 10 μM. […]

TrampC1 = experiment: Removal of Palbociclib-induced senescent TrampC1 prostate cancer cells, Crystal Violet and SA-β-Gal; assay type: cell-based, murine; conditions: 5 μM for 48 hours, senescence induced with Palbociclib
Protocol: (§5) Subsequently we tested the effects of Alectinib on cancer cell lines pre-treated with stimulator of senescence. In the specific case we used TrampC1 and PC3, two cell lines of prostate cancer, respectively murine and human lines. With the purpose of inducing the senescence in these cells, we used Palbociclib, a specific inhibitor of […] currently used in clinic in the treatment of breast cancer. Once the cells started senescence, Alectinib was added to the culture medium at the concentration of 5 μM for 48 hours.

[2] = system: MEFs in replicative senescence (RS); experiment: Replicative senescence assay in MEFs, Crystal Violet and SA-β-Gal; assay type: cell-based, murine; conditions: 10 μM, passage 8, Crystal Violet and SA-β-Gal
Protocol: (§6) The senolytic activity of Alectinib was validated in the context of the replicative senescence: assay which mimes the natural process of cell ageing due to the shortening of telomers. The MEFs were seeded in 10 cm2-plates (3×10^5 cells/plate). Every 3 days these cells were detached by means of trypsin, counted with Trypan Blu and plated in the same number. This process was performed for 8 passages before starting the senolytic treatment. At passages 8 and 9 the senescence of these cells was tested by means of the assay of SA-β-Gal (about 78% of senescent cells).
(§7) At passage 8, the non-senescent cells (NS) and cells in replicative senescence (RS) were seeded in a 96-well plate (5000 cells/well) and treated at different concentrations of Alectinib.

non-senescent (NS) MEFs = experiment: Replicative senescence assay in MEFs, non-senescent cells; assay type: cell-based, murine; conditions: 10 μM, Crystal Violet and SA-β-Gal
Protocol: as §6, §7

PC3 = experiment: Removal of Palbociclib-induced senescent PC3 prostate cancer cells, Crystal Violet and SA-β-Gal; assay type: cell-based, human; conditions: 5 μM for 48 hours, senescence induced with Palbociclib
Protocol: as §5

non-senescent (NS) IMR90 = experiment: Replicative senescence assay in IMR90, non-senescent cells; assay type: cell-based, human; conditions: 2.5 μM, Crystal Violet and SA-β-Gal
Protocol: as §1, §2

MEF wt (NS) = experiment: Senolytic screening, specificity on non-senescent MEF wt; assay type: cell-based, murine; conditions: 10 μM, 48 hours; versus ABT-263
Protocol: as §3, §4

MEF Pten−/− = experiment: Induction of senescence in MEF Pten−/− by Docetaxel; assay type: cell-based, murine; conditions: 750 nM for 48 hours
Protocol: (§8) Technically the screening was performed in three passages; • Before treatment, to the culture medium of MEF (DMEM, 10%FBS, 5% P/S) Docetaxel is added, at the concentration of 750 nM for 48 hours. […] The cells were seeded in a 96-well plate at a density of 5000 cells per well. In the more external wells PBS was added, so as to be able to maintain the correct humidity inside the plate. • At last, 24 hours after the seeding of cells, the compounds of our study were added to the cells for 48 hours at the concentration of 10 μM.

MEF WT = experiment: Effect of Docetaxel on cell cycle of MEF WT; assay type: cell-based, murine; conditions: 750 nM for 48 hours
Protocol: as §8

Row | SMILES | removal of senescent cells (RS IMR90) [1] | removal of senescent cells (PICS) (MEF Pten−/− (PICS)) | removal of senescent cells (TrampC1) (TrampC1) | removal of senescent cells (RS MEFs) [2] | impact on NS cells (MEFs) (non-senescent (NS) MEFs) | removal of senescent cells (PC3) (PC3) | impact on NS cells (IMR90) (non-senescent (NS) IMR90) | selectivity: impact on MEF wt (NS) (MEF wt (NS)) | senescence of MEF Pten−/− (MEF Pten−/−) | cell cycle of MEF WT (MEF WT)
1 | CCc1cc2c(cc1N1CCC(N3CCOCC3)CC1)C(C)(C)c1[nH]c3cc(C#N)ccc3c1C2=O [Alectinib] | capable of removing the senescent cells | strong capability in killing the PICS cells; also recorded: effectiveness comparable to ABT-263 | capability of removing the senescent cells in both cell lines; also recorded: capable of removing successfully the senescent cells | capable of removing the senescent cells | without killing the non-senescent (NS) cells; also recorded: without impacting on the cells NS | capability of removing the senescent cells in both cell lines; also recorded: capable of removing successfully the senescent cells | without killing the non-senescent (NS) cells; also recorded: without impacting on the NS cells | non-senescent, NS, cells are kept vital; also recorded: more selective by impacting less seriously on MEF wt (NS) |  | 
2 | CC(=O)O[C@@]12CO[C@@H]1C[C@H](O)[C@@]1(C)C(=O)[C@H](O)C3=C(C)[C@@H](OC(=O)[C@H](O)[C@@H](NC(=O)OC(C)(C)C)c4ccccc4)C[C@@](O)([C@@H](OC(=O)c4ccccc4)[C@H]21)C3(C)C [Docetaxel] |  |  |  |  |  |  |  |  | 80% | without altering the cell cycle of MEF WT
